“And” between values parts separate entries of the source, which are not always exact repeats. Equal values may be shown once. Read-outs that look alike come from different tables or passages of the source.
What was measured:
[1] = test system: human prostate PC3-mm2 tumor cell line; assay: In vitro cell culture growth assay (MTS), PC3-mm2; assay type: cell-based; conditions: Homo sapiens, PC3MM2, 72 h
Human mTOR (FLAG-TOR) = Human mTOR (FLAG-TOR) (Homo sapiens, UniProt P42345); assay: mTOR kinase assay (DELFIA format, purified enzyme); assay type: biochemical; conditions: read-out: IC50 mTOR
Human mTOR (FLAG-TOR), sequence (P42345 1360-2549 limits assumed): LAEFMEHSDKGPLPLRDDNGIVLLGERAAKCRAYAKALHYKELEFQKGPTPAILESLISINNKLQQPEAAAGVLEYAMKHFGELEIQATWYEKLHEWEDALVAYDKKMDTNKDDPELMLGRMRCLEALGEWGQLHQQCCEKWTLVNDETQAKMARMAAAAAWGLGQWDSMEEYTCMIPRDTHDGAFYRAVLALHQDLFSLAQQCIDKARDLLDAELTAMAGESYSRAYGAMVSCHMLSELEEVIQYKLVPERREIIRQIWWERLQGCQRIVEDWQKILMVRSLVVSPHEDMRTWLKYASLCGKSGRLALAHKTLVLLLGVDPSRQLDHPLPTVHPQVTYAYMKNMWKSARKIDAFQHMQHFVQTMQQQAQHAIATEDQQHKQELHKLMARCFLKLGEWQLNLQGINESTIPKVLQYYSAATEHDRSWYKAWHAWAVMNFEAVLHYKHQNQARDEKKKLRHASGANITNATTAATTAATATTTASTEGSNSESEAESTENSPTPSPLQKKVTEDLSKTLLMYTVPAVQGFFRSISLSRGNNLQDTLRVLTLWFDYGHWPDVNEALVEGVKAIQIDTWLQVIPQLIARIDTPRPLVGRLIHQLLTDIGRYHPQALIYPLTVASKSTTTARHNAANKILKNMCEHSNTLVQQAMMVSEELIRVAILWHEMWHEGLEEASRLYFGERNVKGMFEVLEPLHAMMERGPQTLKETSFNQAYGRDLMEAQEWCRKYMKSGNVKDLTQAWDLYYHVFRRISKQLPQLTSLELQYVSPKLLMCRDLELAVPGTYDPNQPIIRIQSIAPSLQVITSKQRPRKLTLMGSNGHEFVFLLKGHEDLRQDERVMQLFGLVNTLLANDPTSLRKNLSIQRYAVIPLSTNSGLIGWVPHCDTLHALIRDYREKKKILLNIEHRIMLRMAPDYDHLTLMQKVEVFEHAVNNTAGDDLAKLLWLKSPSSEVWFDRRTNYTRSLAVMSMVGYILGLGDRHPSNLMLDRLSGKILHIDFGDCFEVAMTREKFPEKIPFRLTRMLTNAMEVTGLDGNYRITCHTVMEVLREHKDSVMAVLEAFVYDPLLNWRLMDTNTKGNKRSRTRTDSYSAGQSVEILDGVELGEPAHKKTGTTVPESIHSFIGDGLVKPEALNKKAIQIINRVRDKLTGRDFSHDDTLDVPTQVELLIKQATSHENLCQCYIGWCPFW

[2] = test system: human breast MDA-MB-361 tumor cell line; assay: In vitro cell culture growth assay (MTS), MDA-MB-361; assay type: cell-based; conditions: Homo sapiens
PI3K-γ = PI3K-γ (Homo sapiens, UniProt P48736); assay: PI3K-gamma fluorescence polarization assay; conditions: read-out: IC50 PI3Kγ
PI3K-γ, sequence (P48736 whole entry, species assumed): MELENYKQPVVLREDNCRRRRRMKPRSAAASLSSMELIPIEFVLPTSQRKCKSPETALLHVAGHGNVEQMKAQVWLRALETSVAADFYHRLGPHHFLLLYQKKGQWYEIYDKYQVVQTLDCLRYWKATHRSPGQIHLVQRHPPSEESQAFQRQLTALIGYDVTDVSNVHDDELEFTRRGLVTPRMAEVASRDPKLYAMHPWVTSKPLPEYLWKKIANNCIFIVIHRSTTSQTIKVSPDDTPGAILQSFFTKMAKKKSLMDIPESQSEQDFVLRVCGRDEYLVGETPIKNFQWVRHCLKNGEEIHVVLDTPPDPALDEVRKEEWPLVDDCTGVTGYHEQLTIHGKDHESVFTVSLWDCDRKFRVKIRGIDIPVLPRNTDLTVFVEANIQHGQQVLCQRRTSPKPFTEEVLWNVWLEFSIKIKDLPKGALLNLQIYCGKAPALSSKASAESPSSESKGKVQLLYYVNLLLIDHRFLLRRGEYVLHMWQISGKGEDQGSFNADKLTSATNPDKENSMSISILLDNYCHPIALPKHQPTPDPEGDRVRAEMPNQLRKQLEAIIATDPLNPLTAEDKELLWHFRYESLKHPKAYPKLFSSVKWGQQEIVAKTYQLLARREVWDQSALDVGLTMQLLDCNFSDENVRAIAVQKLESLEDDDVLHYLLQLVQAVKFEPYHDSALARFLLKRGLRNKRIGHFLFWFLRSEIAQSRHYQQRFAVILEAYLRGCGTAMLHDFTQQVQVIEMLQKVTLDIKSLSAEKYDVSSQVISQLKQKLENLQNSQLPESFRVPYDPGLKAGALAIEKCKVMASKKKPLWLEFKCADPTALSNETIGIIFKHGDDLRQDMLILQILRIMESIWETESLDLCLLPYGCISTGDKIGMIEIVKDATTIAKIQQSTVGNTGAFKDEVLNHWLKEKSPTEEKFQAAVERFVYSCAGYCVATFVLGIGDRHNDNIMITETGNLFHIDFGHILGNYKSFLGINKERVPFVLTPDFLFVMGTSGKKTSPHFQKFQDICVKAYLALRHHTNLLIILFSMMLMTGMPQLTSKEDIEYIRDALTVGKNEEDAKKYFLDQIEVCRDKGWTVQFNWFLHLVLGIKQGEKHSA

PI3K-α = PI3K-α (Homo sapiens, UniProt P42336); assay: PI3K-alpha fluorescence polarization assay; conditions: read-out: IC50 PI3Kα
PI3K-α, sequence (P42336 whole entry, species assumed): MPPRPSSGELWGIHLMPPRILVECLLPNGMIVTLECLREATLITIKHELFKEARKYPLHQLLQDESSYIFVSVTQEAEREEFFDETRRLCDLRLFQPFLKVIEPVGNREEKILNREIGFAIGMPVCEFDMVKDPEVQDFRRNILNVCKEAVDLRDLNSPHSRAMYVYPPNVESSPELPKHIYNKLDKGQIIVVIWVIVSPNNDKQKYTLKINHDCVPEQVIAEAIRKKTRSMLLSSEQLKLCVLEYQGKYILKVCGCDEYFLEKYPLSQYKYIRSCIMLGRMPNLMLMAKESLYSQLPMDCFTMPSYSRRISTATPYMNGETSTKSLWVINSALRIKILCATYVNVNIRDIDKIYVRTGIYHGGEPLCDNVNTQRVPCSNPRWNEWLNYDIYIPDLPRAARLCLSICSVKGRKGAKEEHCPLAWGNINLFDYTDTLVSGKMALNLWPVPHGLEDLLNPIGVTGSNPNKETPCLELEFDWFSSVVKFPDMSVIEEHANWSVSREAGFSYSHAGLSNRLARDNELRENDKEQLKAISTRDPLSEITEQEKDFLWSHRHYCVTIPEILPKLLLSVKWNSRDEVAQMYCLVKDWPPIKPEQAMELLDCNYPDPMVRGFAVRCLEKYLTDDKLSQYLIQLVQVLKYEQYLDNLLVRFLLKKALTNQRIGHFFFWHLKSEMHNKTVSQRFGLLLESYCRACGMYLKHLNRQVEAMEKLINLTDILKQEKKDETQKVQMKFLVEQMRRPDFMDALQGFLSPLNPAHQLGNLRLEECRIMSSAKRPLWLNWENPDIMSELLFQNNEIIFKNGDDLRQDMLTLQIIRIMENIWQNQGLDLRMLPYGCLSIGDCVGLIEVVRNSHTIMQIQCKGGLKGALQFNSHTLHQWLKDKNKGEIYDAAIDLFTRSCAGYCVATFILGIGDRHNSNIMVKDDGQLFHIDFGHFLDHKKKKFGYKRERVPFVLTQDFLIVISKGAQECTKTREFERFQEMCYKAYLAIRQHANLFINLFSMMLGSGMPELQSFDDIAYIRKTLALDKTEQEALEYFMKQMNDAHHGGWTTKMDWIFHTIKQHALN
PI3K-α, sequence (P27986 whole entry partner, species assumed): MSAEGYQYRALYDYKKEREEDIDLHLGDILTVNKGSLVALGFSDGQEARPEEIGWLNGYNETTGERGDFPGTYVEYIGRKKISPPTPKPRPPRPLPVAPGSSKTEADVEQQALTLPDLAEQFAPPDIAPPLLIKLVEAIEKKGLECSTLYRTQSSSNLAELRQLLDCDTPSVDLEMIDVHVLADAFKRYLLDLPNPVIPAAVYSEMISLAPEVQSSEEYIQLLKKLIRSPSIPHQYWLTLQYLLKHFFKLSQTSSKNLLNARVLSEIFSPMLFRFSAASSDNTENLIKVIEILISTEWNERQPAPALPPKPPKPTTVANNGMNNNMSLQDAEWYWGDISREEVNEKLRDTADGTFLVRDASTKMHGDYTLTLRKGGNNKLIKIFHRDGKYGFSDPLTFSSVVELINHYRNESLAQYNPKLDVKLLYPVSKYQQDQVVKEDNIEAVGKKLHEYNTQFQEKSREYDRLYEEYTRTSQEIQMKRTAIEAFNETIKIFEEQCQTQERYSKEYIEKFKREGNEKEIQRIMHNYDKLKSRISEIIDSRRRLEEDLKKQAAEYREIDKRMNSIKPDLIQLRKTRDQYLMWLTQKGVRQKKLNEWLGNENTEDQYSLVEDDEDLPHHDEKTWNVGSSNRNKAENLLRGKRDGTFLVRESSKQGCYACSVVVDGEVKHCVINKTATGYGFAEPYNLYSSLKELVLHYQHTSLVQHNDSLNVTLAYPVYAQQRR

[3] = MTS cell growth assay, three days after drug treatment, PC3-mm2 cells, read-out: IC50 PC3-mm2
[4] = 72 h, MTS cell growth assay, three days after drug treatment, MDA-MB-361 cells, read-out: IC50 MDA-MB-361
[5] = MTS cell growth assay, three days after drug treatment, read-out: IC50 PC3-mm2
[6] = MDA-MB-361, 72 h, MTS cell growth assay, three days after drug treatment, read-out: IC50 MDA-MB-361
[7] = MDA-MB-361, 72 h, MTS cell growth assay, three days after drug treatment, MDA-MB-361 cells, read-out: IC50 MDA-MB-361

COCCNC(=O)c1ccc(NC(=O)Nc2ccc(-c3nc(-c4cccs4)nc(N4CCOCC4)n3)cc2)cc1 [Example 561, N-(2-methoxyethyl)-4-[({4-[4-morpholin-4-yl-6-(2-thienyl)-1,3,5-triazin-2-yl]phenyl}carbamoyl)amino]benzamide]
IC50 [1, 3]: 218 nM
IC50 (Human mTOR (FLAG-TOR)): 6 nM
IC50 [2, 4]: 66 nM
IC50 (PI3K-γ): 59 nM
IC50 (PI3K-α): 11.5 nM

N#Cc1ccc(NC(=O)Nc2ccc(-c3nc(N4CCOCC4)nc(N4C5CCC4COC5)n3)cc2)cc1 [Example 42, 1-(4-cyanophenyl)-3-{4-[4-morpholin-4-yl-6-(3-oxa-8-azabicyclo[3.2.1]oct-8-yl)-1,3,5-triazin-2-yl]phenyl}urea]
IC50 [1, 3]: 3600 nM
IC50 [1, 5]: 3600 nM
IC50 (Human mTOR (FLAG-TOR)): 3.35 nM
IC50 [2, 6]: 345 nM
IC50 (PI3K-γ): 290 nM
IC50 (PI3K-α): 86 nM
IC50 (PI3K-α; listed as 677): 86.5 nM

CN(C)CCN(C)C(=O)c1ccc(NC(=O)Nc2ccc(-c3nc(NS(=O)(=O)c4ccccc4)nc(N4CCOCC4)n3)cc2)cc1 [Example 787, N-[2-(dimethylamino)ethyl]-N-methyl-4-{[(4-{4-morpholin-4-yl-6-[(phenylsulfonyl)amino]-1,3,5-triazin-2-yl}phenyl)carbamoyl]amino}benzamide]
IC50 [1, 3]: > 1000 nM
IC50 (Human mTOR (FLAG-TOR)): 58.5 nM
IC50 [2, 4]: > 1000 nM
IC50 (PI3K-γ): 146 nM
IC50 (PI3K-α): 10.5 nM

CN(C)C1CCN(c2ccc(NC(=O)Nc3ccc(-c4nc(-c5ccccc5)nc(N5CCOCC5)n4)cc3)cc2)CC1 [Example 345, 1-{4-[4-(dimethylamino)piperidin-1-yl]phenyl}-3-[4-(4-morpholin-4-yl-6-phenyl-1,3,5-triazin-2-yl)phenyl]urea]
IC50 [1, 3]: 395 nM
IC50 [1, 5]: 395 nM
IC50 (Human mTOR (FLAG-TOR)): 80 nM and 81.5 nM
IC50 [2, 6]: 554 nM
IC50 (PI3K-γ): 112 nM
IC50 (PI3K-α): 43 nM
IC50 (PI3K-α; listed as 535): 43.5 nM

O=C(Nc1ccncc1)Nc1ccc(-c2nc(-c3cnc4ccccc4c3)nc(N3CCOCC3)n2)cc1 [Example 137, 1-[4-(4-morpholin-4-yl-6-quinolin-3-yl-1,3,5-triazin-2-yl)phenyl]-3-pyridin-4-ylurea]
IC50 [1, 3]: 551 nM
IC50 [1, 5]: 551 nM
IC50 (Human mTOR (FLAG-TOR)): 8.55 nM
IC50 [2, 6]: 582 nM
IC50 (PI3K-γ): 117 nM
IC50 (PI3K-α): 9 nM
IC50 (PI3K-α; listed as 712): 9.5 nM

Cc1cc(NC(=O)Nc2ccc(-c3nc(OC4CCOCC4)nc(N4CCOCC4)n3)cc2)ccn1 [Example 63, 1-(2-methylpyridin-4-yl)-3-{4-[4-morpholin-4-yl-6-(tetrahydro-2H-pyran-4-yloxy)-1,3,5-triazin-2-yl]phenyl}urea]
IC50 [1, 5]: 62 nM
IC50 (Human mTOR (FLAG-TOR)): 1.95 nM
IC50 [2, 6]: 69 nM
IC50 (PI3K-γ): 36 nM
IC50 (PI3K-α): 5 nM

C[C@H]1COCCN1c1nc(-c2ccc(NC(=O)Nc3ccc(C(=O)NCCN(C)C)cc3)cc2)nc(N2CCOC[C@@H]2C)n1 [Example 546, 4-{[(4-{4,6-bis[(3S)-3-methylmorpholin-4-yl]-1,3,5-triazin-2-yl}phenyl)carbamoyl]amino}-N-[2-(dimethylamino)ethyl]benzamide]
IC50 [1, 3]: 25 nM
IC50 (Human mTOR (FLAG-TOR)): 0.225 nM
IC50 [2, 4]: 7 nM
IC50 (PI3K-γ): 73.5 nM
IC50 (PI3K-α): 3.5 nM

CN(C)C1CCN(C(=O)c2ccc(NC(=O)Nc3ccc(-c4nc(N5CCOCC5)nc(N5CC6CCC5CO6)n4)cc3)cc2)CC1 (stereo not shown) [Example 810, 1-(4-{[4-(dimethylamino)piperidin-1-yl]carbonyl}phenyl)-3-{4-[4-morpholin-4-yl-6-(2-oxa-5-azabicyclo[2.2.2]oct-5-yl)-1,3,5-triazin-2-yl]phenyl}urea]
IC50 ([1]; PC3-mm2 cells, MTS, three days after drug treatment, read-out: IC50 PC3-mm2): 26 nM
IC50 (Human mTOR (FLAG-TOR)): 2.05 nM
IC50 ([2]; MDA-MB-361, 72 h, MDA-MB-361 cells, MTS, three days after drug treatment, read-out: IC50 MDA-MB-361): 2 nM
IC50 (PI3K-γ): 30.5 nM
IC50 (PI3K-α): 2.8 nM

C[C@H]1COCCN1c1nc(-c2ccc(NC(=O)Nc3ccc(C(=O)NCCN4CCN(C)CC4)cc3)cc2)nc(N2CCOC[C@@H]2C)n1 [Example 633, 4-{[(4-{4,6-bis[(3S)-3-methylmorpholin-4-yl]-1,3,5-triazin-2-yl}phenyl)carbamoyl]amino}-N-[2-(4-methylpiperazin-1-yl)ethyl]benzamide]
IC50 [1, 3]: 64 nM
IC50 (Human mTOR (FLAG-TOR)): 1 nM
IC50 [2, 4]: 15 nM
IC50 (PI3K-γ): 175 nM
IC50 (PI3K-α): 11.5 nM

O=C(Nc1ccc(CCO)cc1)Nc1ccc(-c2nc(N3CCOCC3)nc(N3C4CCC3COC4)n2)cc1 [Example 39, 1-[4-(2-hydroxyethyl)phenyl]-3-{4-[4-morpholin-4-yl-6-(3-oxa-8-azabicyclo[3.2.1]oct-8-yl)-1,3,5-triazin-2-yl]phenyl}urea]
IC50 [1, 3]: 30 nM
IC50 [1, 5]: 30 nM
IC50 (Human mTOR (FLAG-TOR)): 0.32 nM and 0.325 nM
IC50 [2, 6]: 22 nM
IC50 (PI3K-γ): 75 nM
IC50 (PI3K-γ; listed as 674): 74.5 nM
IC50 (PI3K-α): 14 nM

CN(C)C(=O)N1CCN(c2nc(-c3ccc(NC(=O)Nc4ccc(C(=O)O)cc4)cc3)nc(N3CCOCC3)n2)CC1 [Example 646, 4-{[(4-{4-[4-(dimethylcarbamoyl)piperazin-1-yl]-6-morpholin-4-yl-1,3,5-triazin-2-yl}phenyl)carbamoyl]amino}benzoic acid]
IC50 [1, 3]: 223 nM
IC50 (Human mTOR (FLAG-TOR)): 6 nM
IC50 [2, 7]: 32 nM
IC50 (PI3K-γ): 85.5 nM
IC50 (PI3K-α): 23 nM

Cc1cc(NC(=O)Nc2ccc(-c3nc(N4CCOCC4)nc(N4CCC5(CC4)OCCO5)n3)cc2)ccn1 [Example 135, 1-{4-[4-(1,4-dioxa-8-azaspiro[4.5]dec-8-yl)-6-morpholin-4-yl-1,3,5-triazin-2-yl]phenyl}-3-(2-methylpyridin-4-yl)urea]
IC50 [1, 3]: 509 nM
IC50 [1, 5]: 509 nM
IC50 (Human mTOR (FLAG-TOR)): 34 nM
IC50 [2, 6]: 533 nM
IC50 (PI3K-γ): 143 nM
IC50 (PI3K-γ; listed as 710): 144 nM
IC50 (PI3K-α): 15 nM
IC50 (PI3K-α; listed as 710): 15.5 nM

COC(=O)c1ccc(NC(=O)Nc2ccc(-c3nc(N4CCOCC4)nc(N4CCOCC4)n3)cc2)cc1 [Example 58, methyl 4-({[4-(4,6-dimorpholin-4-yl-1,3,5-triazin-2-yl)phenyl]carbamoyl}amino)benzoate]
IC50 ([1]; read-out: IC50 PC3-mm2, MTS cell growth assay, three days after drug treatment): 45 nM
IC50 (Human mTOR (FLAG-TOR)): 2.5 nM
IC50 ([2]; MDA-MB-361, 72 h, read-out: IC50 MDA-MB-361, MTS cell growth assay, three days after drug treatment): 115 nM
IC50 (PI3K-γ): 85 nM
IC50 (PI3K-α): 13 nM

CN(C)CCNC(=O)c1ccc(NC(=O)Nc2ccc(-c3nc(NS(=O)(=O)c4ccccc4)nc(N4CCOCC4)n3)cc2)cc1 [Example 788, N-[2-(dimethylamino)ethyl]-4-{[(4-{4-morpholin-4-yl-6-[(phenylsulfonyl)amino]-1,3,5-triazin-2-yl}phenyl)carbamoyl]amino}benzamide]
IC50 [1, 3]: > 1000 nM
IC50 (Human mTOR (FLAG-TOR)): 26 nM
IC50 [2, 4]: > 1000 nM
IC50 (PI3K-γ): 160 nM
IC50 (PI3K-α): 13 nM

CC1CN(C(=O)c2ccc(NC(=O)Nc3ccc(-c4nc(N5CCOCC5)nc(N5C6CCC5COC6)n4)cc3)cc2)CC(C)N1 (stereo not shown) [Example 703, 1-{4-[(3,5-dimethylpiperazin-1-yl)carbonyl]phenyl}-3-{4-[4-morpholin-4-yl-6-(3-oxa-8-azabicyclo[3.2.1]oct-8-yl)-1,3,5-triazin-2-yl]phenyl}urea]
IC50 [1, 3]: 13 nM
IC50 (Human mTOR (FLAG-TOR)): 0.51 nM
IC50 [2, 7]: < 3 nM
IC50 (PI3K-γ): 23.5 nM
IC50 (PI3K-α): 1.5 nM

CN1CCCN(C(=O)Nc2ccc(NC(=O)Nc3ccc(-c4nc(N5CCOCC5)nc(N5CCOCC5)n4)cc3)cc2)CC1 [Example 502, N-[4-({[4-(4,6-dimorpholin-4-yl-1,3,5-triazin-2-yl)phenyl]carbamoyl}amino)phenyl]-4-methyl-1,4-diazepane-1-carboxamide]
IC50 [1, 3]: 11 nM
IC50 (Human mTOR (FLAG-TOR)): 1 nM
IC50 [2, 4]: 4 nM
IC50 (PI3K-γ): 6 nM
IC50 (PI3K-α): 0.5 nM
